Values of other authors, collected in patent US5516904A, “Acetylenes disubstituted with a heteroaromatic group and a substituted phenyl group having retinoid like activity” (Allergan, Inc., priority 1995, dated 1996).

Tested on: ornithine decarboxylase (ODC)
Conditions: result in words; literature background

CC1=C(/C=C/C(C)=C/C=C/C(C)=C/C(=O)O)C(C)(C)CCC1 [Retionic acid, retinoic acid]
inhibition of induction of ODC activity by TPA: inhibits
